Activity calls are given as the source filed them. The rule behind the calls is not given here.

The target of test [1] is T1, Cannabinoid receptor 2 (Homo sapiens, UniProt P34972). Put plainly: Binding affinity to Cannabinoid receptor 2 using African green monkey (COS-7) cells Chinese hamster ovary(CHO) cells transfected with the cDNA of human CB2. It is filed as cell-based.
Test [2] addresses T2, Cannabinoid receptor 1 (Rattus norvegicus, UniProt P20272). Nature of the test: Effective concentration for inhibition of Cannabinoid receptor 1-mediated adenylyl cyclase activity using African green monkey (COS-7) cells transfected with the cDNA of rat CB1 receptor. The test is classed as functional.
In test [3] the target is T2, Cannabinoid receptor 1. Put plainly: Binding affinity for Cannabinoid receptor 1 using African green monkey (COS-7) cells transfected with the cDNA of […].
Test [4] addresses T2, Cannabinoid receptor 1. Put plainly: Binding to Cannabinoid receptor 1 using African green monkey (COS-7) cells transfected with the cDNA of rat CB1. The test is classed as cell-based.
For test [5], the target named is T1, Cannabinoid receptor 2. Nature of the test: Effective concentration for inhibition of human Cannabinoid receptor 2-mediated adenylyl cyclase using African green monkey (COS-7) cells transfected with the cDNA of human CB2 receptor. It is filed as functional.
Test [6] has as its target Cannabinoid receptor 1 (Rattus norvegicus) (UniProt P20272). Nature of the test: Inhibitory affect of 1 uM 0f the substance against cDNA of rat Cannabinoid receptor 1.
Test [7] concerns the target T1, Cannabinoid receptor 2. Put plainly: Inhibitory activity of 1 uM against human Cannabinoid receptor 2-mediated adenylyl cyclase using African green monkey (COS-7) cells transfected with the cDNA of human CB2 receptor. The test is classed as functional, cell-based.
Test [8] has as its target Cannabinoid receptor 1 (Rattus norvegicus) (UniProt P20272). Nature of the test: Inhibitory affect of 1 uM of the substance against Cannabinoid receptor 1-mediated adenylyl cyclase using African green monkey (COS-7) cells transfected with the cDNA of rat CB1 receptor; No inhibition. The test is classed as functional, cell-based.
Test [9] addresses T1, Cannabinoid receptor 2. Put plainly: Inhibitory effect of 1 uM of the substance against African green monkey (COS-7) cells Chinese hamster ovary(CHO) cells transfected with the cDNA of human Cannabinoid receptor 2. It is filed as cell-based.
The target of test [10] is Cannabinoid receptor 1 (Rattus norvegicus) (UniProt P20272). Nature of the test: Inhibitory affect of 1 uM of the substance against Cannabinoid receptor 1-mediated adenylyl cyclase using African green monkey (COS-7) cells transfected with the cDNA of rat CB1 receptor. It is filed as functional, cell-based.
Cannabinoid receptor 1 (Rattus norvegicus), sequence (P20272 whole entry): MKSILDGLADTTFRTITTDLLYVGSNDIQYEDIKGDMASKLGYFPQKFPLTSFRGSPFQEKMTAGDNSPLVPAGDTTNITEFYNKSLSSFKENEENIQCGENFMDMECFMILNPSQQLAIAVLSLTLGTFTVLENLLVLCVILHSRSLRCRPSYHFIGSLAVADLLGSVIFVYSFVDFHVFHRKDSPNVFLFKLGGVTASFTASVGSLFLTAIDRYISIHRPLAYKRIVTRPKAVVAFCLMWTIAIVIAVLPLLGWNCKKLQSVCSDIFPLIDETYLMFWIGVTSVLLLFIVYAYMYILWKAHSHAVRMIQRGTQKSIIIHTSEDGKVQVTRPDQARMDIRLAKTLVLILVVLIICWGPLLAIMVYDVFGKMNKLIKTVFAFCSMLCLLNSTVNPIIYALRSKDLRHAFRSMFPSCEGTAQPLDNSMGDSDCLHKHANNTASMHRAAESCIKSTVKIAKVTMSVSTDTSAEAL
Test [11] deals with T1, Cannabinoid receptor 2. Put plainly: Inhibitory affect of 1 uM against African green monkey (COS-7) cells Chinese hamster ovary(CHO) cells transfected with the cDNA of human Cannabinoid receptor 2. It is filed as cell-based.
The target of test [12] is Cannabinoid receptor 1 (Rattus norvegicus) (UniProt P20272). Nature of the test: Inhibitory affect of 1 uM againstAfrican green monkey (COS-7) cells transfected with the cDNA of rat Cannabinoid receptor 1. The test is classed as cell-based.
Test [13] has as its target T1, Cannabinoid receptor 2. Nature of the test: Binding affinity of compound towards Cannabinoid receptor 2 in african green monkey COS-7 cells transfected with cDNA of human CB2 receptor. It is filed as cell-based.
For test [14], the target named is T2, Cannabinoid receptor 1. Nature of the test: Binding affinity of compound towards Cannabinoid receptor 1 in african green monkey COS-7 cells transfected with cDNA of rat CB1 receptor. It is filed as cell-based.
Test [15] addresses T2, Cannabinoid receptor 1. Nature of the test: Binding affinity of compound towards Cannabinoid receptor 1 in rat brain synaptosomal membrane preparations. The test is classed as cell membranes.
The target of test [16] is T1, Cannabinoid receptor 2. Nature of the test: Inhibitory affect of 1 uM of the substance against African green monkey (COS-7) cells Chinese hamster ovary(CHO) cells transfected with the cDNA of human Cannabinoid receptor 2. It is filed as cell-based.
The target of test [17] is T1, Cannabinoid receptor 2. Put plainly: Inhibitory affect of 1 uM of the substance against human Cannabinoid receptor 2-mediated adenylyl cyclase using African green monkey (COS-7) cells transfected with the cDNA of human CB2 receptor; No inhibition. It is filed as functional, cell-based.
Test [18] has as its target Cannabinoid receptor 1 (Rattus norvegicus) (UniProt P20272). Nature of the test: Inhibitory affect of 1 uM of the substance against African green monkey (COS-7) cells transfected with the cDNA of rat Cannabinoid receptor 1. The test is classed as cell-based.

T1 sequence (P34972 whole entry): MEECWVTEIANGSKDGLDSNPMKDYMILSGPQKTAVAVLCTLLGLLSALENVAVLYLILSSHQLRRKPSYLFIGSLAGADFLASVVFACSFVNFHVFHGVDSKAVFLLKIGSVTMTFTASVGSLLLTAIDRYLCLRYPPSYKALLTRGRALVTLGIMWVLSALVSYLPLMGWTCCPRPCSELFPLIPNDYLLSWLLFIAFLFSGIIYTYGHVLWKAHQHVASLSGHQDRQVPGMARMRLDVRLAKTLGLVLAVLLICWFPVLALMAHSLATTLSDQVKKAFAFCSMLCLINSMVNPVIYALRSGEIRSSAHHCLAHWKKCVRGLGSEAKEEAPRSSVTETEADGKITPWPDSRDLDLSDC
T2 sequence (P20272 whole entry): as the sequence (P20272 whole entry) above

Take `CCCCCCC(C)(C)c1cc(O)c2c(c1)OC(C)(C)c1ccc(CO)cc1-2`: the Ki at Cannabinoid receptor 2 [1] is 0.2 nM; at Cannabinoid receptor 1 [3], 1.8 nM; at Cannabinoid receptor 1 [4] it was 0.1 nM. The EC50 on Cannabinoid receptor 1 [2] was 0.056 nM; on Cannabinoid receptor 2 [5], 0.208 nM.

With `CCCCCCC(C)(C)c1cc(OC(C)=O)c2c(c1)OC(C)(C)[C@@H]1CC=C(C(=O)O)CC21` (some centres undefined), the inhibition came to 11% in test [6], 27% at Cannabinoid receptor 2 [7] and 9% against Cannabinoid receptor 2 [9]. On Cannabinoid receptor 1 [3], this molecule displayed a Ki of over 10000 nM. Also, the inhibition entry in test [8] is “inactive”.

Turning to `CCCCCc1cc(O)c2c(c1)OC(C)(C)c1ccc(CO)cc1-2`, the Ki came to 26.6 nM at Cannabinoid receptor 2 [1], 189 nM on Cannabinoid receptor 1 [3] and 38 nM on Cannabinoid receptor 1 [4]. On Cannabinoid receptor 2 [7], this molecule showed an inhibition of 20%. Further, a half-maximal effect at Cannabinoid receptor 1 [2] (EC50) was put at 58.1 nM.

Regarding `CCCCCc1cc(OC(C)=O)c2c(c1)OC(C)(C)c1ccc(C(=O)O)cc1-2`, the inhibition was found to be 3% in test [10], 2% against Cannabinoid receptor 2 [7], 19% against Cannabinoid receptor 2 [11] and 35% in test [12]. Further, the Ki at Cannabinoid receptor 1 [3] was over 10000 nM.

Consider `CCCCCc1cc(O)c2c(c1)OC(C)(C)c1ccc(C)cc1-2` [CANNABINOL], for which the figures for the EC50 at Cannabinoid receptor 1 [2] and on Cannabinoid receptor 2 [5] were 120 nM and 261 nM, respectively. Further, the figures for the Ki at Cannabinoid receptor 2 [13], at Cannabinoid receptor 1 [14] and on Cannabinoid receptor 1 [15] were 126 nM, 211 nM and 392 nM, respectively.

For the molecule `CCCCCCC(C)(C)c1cc(O)c2c(c1)OC(C)(C)[C@@H]1CC=C(C(=O)O)CC21` (some centres undefined), the results for the Ki on Cannabinoid receptor 2 [1], on Cannabinoid receptor 1 [3] and on Cannabinoid receptor 1 [4] were 170 nM, 481 nM and 32.3 nM, respectively. The EC50 at Cannabinoid receptor 1 [2] was found to be 927 nM; on Cannabinoid receptor 2 [5] it was 116 nM.

For the molecule `CCCCCCC(C)(C)c1cc(OC(C)=O)c2c(c1)OC(C)(C)c1ccc(C(=O)O)cc1-2`, the Ki on Cannabinoid receptor 2 [1] worked out at 17.3 nM; on Cannabinoid receptor 1 [3] it was 556 nM; on Cannabinoid receptor 1 [4] it was 49.8 nM. For the same molecule, the EC50 on Cannabinoid receptor 1 [2] stood at 13.3 nM; on Cannabinoid receptor 2 [5], 39.3 nM.

As to `CCCCCCC(C)(C)c1cc(O)c2c(c1)OC(C)(C)[C@@H]1CCC(C)=CC21` (some centres undefined), the Ki on Cannabinoid receptor 2 [1] worked out at 0.199 nM; at Cannabinoid receptor 1 [3], 2.6 nM; on Cannabinoid receptor 1 [4], 0.241 nM. In addition, the EC50 at Cannabinoid receptor 1 [2] amounted to 0.58 nM; at Cannabinoid receptor 2 [5], 1.01 nM.

As to `CCCCCCC(C)(C)c1cc(O)c2c(c1)oc(=O)c1ccc(C)cc12`, the Ki at Cannabinoid receptor 2 [1] turned out to be 17.3 nM; on Cannabinoid receptor 1 [3], 72.5 nM; on Cannabinoid receptor 1 [4], 32.7 nM. Moreover, the EC50 on Cannabinoid receptor 1 [2] was 9.6 nM; on Cannabinoid receptor 2 [5], 4.6 nM.

For the molecule `CCCCCc1cc(O)c2c(c1)oc(=O)c1ccc(C)cc12`, the results for the inhibition (at Cannabinoid receptor 2 [16]; in [10]; in test [18]) were 14%, 7% and 14%, respectively. The Ki at Cannabinoid receptor 1 [3] was over 10000 nM. Further, the inhibition result at Cannabinoid receptor 2 [17] was “inactive”.

In the case of `CCCCCc1cc(O)c2c(c1)OC(C)(C)[C@@H]1CC=C(CO)CC21` (some centres undefined), the inhibition constant Ki at Cannabinoid receptor 2 [1] worked out at 7.4 nM; at Cannabinoid receptor 1 [3], 33.4 nM; at Cannabinoid receptor 1 [4], 25.8 nM. At Cannabinoid receptor 2 [7], the inhibition was determined as 19%. Further, the EC50 at Cannabinoid receptor 1 [2] stood at 39.9 nM.

Take `CCCCCCC(C)(C)c1cc(O)c2c(c1)OC(C)(C)c1ccc(C(=O)O)cc1-2`: the Ki amounted to 4.8 nM at Cannabinoid receptor 2 [1], 6.1 nM at Cannabinoid receptor 1 [3] and 6.1 nM on Cannabinoid receptor 1 [4]. Also, the EC50 at Cannabinoid receptor 1 [2] was 2.4 nM; at Cannabinoid receptor 2 [5] it was 5.4 nM.

For `CCCCCc1cc(O)c2c(c1)OC(C)(C)[C@@H]1CCC(C)=C[C@@H]21`, the inhibition against Cannabinoid receptor 2 [7] worked out at 21%.

`CCCCCCC(C)(C)c1cc(O)c2c(c1)OC(C)(C)[C@@H]1CC=C(CO)CC21` (some centres undefined) displayed an EC50 at Cannabinoid receptor 1 [2] of 0.035 nM. In addition, the results for the Ki at Cannabinoid receptor 1 [3] and at Cannabinoid receptor 1 [4] were 0.19 nM and 0.1 nM, respectively.

Consider `CCCCCCC(C)(C)c1cc(O)c2c(c1)OC(C)(C)c1ccc(C)cc1-2`, for which the Ki stood at 1.5 nM on Cannabinoid receptor 2 [1], 3.3 nM at Cannabinoid receptor 1 [3] and 2 nM at Cannabinoid receptor 1 [4]. The EC50 at Cannabinoid receptor 1 [2] worked out at 0.18 nM; at Cannabinoid receptor 2 [5], 0.79 nM.

For the molecule `CCCCCc1cc(O)c2c(c1)OC(C)(C)c1ccc(C(=O)O)cc1-2`, the inhibition against Cannabinoid receptor 2 [16] is 23%; in [10], 10%; on Cannabinoid receptor 2 [7], 6%; in test [18] it was under 2%. On Cannabinoid receptor 1 [3], this molecule gave a Ki of 602 nM.

As usually defined, the Ki is the equilibrium dissociation constant of an inhibitor or competing ligand from its target. Usually EC50 stands for the concentration giving half of the maximal effect. As usually defined, the inhibition is how much of the control response was suppressed.

Values taken from ChEMBL document CHEMBL1130395, “Cannabinol derivatives: binding to cannabinoid receptors and inhibition of adenylylcyclase” (J Med Chem, 1997).
